Test results from patent US5648259A, “Polypeptides having NMDA receptor activity, nucleic acids encoding those polypeptides and applications” (priority 1992, dated 1997).

Key:
[1] = tested on: GR33 polypeptide SEQ ID No. 2; assay: Pharmacological and electrophysiological study of Xenopus eggs microinjected with GR33 mRNA (induced current under applied potential); format: cell-based, rat; settings: for effect on response induced by NMDA (200 μM): antagonist applied (200 μM) simultaneously with NMDA; for effect of competitive antagonist on responses to NMDA: concentration not given
Description: The cDNA fragment isolated in Example 2 was transcribed into mRNA and microinjected into Xenopus eggs. The microinjected eggs thereby obtained were then tested for their capacity to bind certain labelled NMDA receptor ligands, or for their behaviour with respect to modulators of NMDA receptors.
The plasmid containing the 1.7-kb cDNA coding for the GR33 polypeptide SEQ ID No. 2 was linearized in the presence of the enzyme SmaI, and then subjected to a transcription step in the presence of phage T7 RNA polymerase. Transcription was performed using the Stratagene Kit according to the manufacturer's recommendations.
The synthetic RNA obtained above, dissolved in sterile water, was used (5 ng) for injection into mature Xenopus eggs (stages V and VI) in a volume of 50 nl. The eggs were then maintained for 3 days at 19° C. in multi well plates in a Barth medium supplemented with antibiotics (Miledi and Sumikawa, Biomed. Res. 3 (1982) 390).
The eggs thereby obtained were then tested for the presence of functional NMDA receptors at their surface. For this purpose, the eggs were transferred to modified OR-2 medium lacking magnesium, of composition: 88 mM NaCl, 2.5 mM KCl, 1 mM CaCl2, 10 mM HEPES buffer, pH 7.4 adjusted with sodium hydroxide. The different drugs (ligands or modulators) were applied by perfusion (10 ml/min) for 10-30 seconds under an applied potential difference of -80 or -90 mV.

[2] = tested on: GR33 polypeptide SEQ ID No. 2; assay: as above; format: cell-based, rat
known NMDA receptors = settings: cited from earlier work

## N[C@H](CCCP(=O)(O)O)C(=O)O [AP5, D-2-amino-5-phosphonovaleric acid]
[1]
  effect on response induced by NMDA (200 μM): abolished
  effect of competitive antagonist on responses to NMDA: reduced

## N[C@H](CCCCCP(=O)(O)O)C(=O)O [AP7, D-2-amino-7-phosphonoheptanoic acid]
[1]
  effect on response induced by NMDA (200 μM): abolished
  effect of competitive antagonist on responses to NMDA: reduced

## CN[C@H](CC(=O)O)C(=O)O [NMDA, N-methyl-D-aspartate]
[1]; GR33 expressed in Xenopus eggs, read-out: NMDA concentration giving 50% of the maximum response (ED50)
  EC50: ~10 µM

## [Ca+2] [calcium]
[1]
  effect of calcium on GR33 activity: inhibitory effect
[2]; external calcium concentration increased to 2.5 mM
  effect on response induced by NMDA (200 μM): decreased
Known NMDA receptors
  effect on activity of known NMDA receptors: stimulates

## N[C@@H](CCC(=O)O)C(=O)O [glutamate, Glutamic acid]
[1]
  strength of response among excitatory amino acids tested (glutamate, kainate, quisqualate, homocysteate): strongest responses
[1]; glutamate 0.1-1 mM, perfusion 10-30 s, -80 or -90 mV
  induction of inward current: induces an inward current

## C=C(C)[C@H]1CN[C@H](C(=O)O)[C@H]1CC(=O)O [kainate]
[1]; kainate
  induction of inward current: little or no effect

## [Mg+2] [magnesium]
[1]
  inhibitory effect of magnesium on GR33 activity: 30-70%
[2]; magnesium 200 μM added to the medium
  effect on response induced by NMDA (200 μM): decreased
Known NMDA receptors
  effect on activity of known NMDA receptors: completely inhibits

## N[C@@H](Cn1oc(=O)[nH]c1=O)C(=O)O [quisqualate]
[1]; quisqualate 50 μM
  induction of inward current: little or no effect
